According to article PMC11509018, “Evaluation of the Role of Tanshinone I in an In Vitro System of Charcot-Marie-Tooth Disease Type 2N” (International Journal of Molecular Sciences, 2024):

Molecular target: T1, AlaRS G102R binding to GST-Nrp1 b1 (Homo sapiens, UniProt P49588, G102R)
T1 construct: made in house; host or cells: E. coli BL21 (DE3), pET-21a for AlaRS
T1 sequence (P49588 1-968 G102R): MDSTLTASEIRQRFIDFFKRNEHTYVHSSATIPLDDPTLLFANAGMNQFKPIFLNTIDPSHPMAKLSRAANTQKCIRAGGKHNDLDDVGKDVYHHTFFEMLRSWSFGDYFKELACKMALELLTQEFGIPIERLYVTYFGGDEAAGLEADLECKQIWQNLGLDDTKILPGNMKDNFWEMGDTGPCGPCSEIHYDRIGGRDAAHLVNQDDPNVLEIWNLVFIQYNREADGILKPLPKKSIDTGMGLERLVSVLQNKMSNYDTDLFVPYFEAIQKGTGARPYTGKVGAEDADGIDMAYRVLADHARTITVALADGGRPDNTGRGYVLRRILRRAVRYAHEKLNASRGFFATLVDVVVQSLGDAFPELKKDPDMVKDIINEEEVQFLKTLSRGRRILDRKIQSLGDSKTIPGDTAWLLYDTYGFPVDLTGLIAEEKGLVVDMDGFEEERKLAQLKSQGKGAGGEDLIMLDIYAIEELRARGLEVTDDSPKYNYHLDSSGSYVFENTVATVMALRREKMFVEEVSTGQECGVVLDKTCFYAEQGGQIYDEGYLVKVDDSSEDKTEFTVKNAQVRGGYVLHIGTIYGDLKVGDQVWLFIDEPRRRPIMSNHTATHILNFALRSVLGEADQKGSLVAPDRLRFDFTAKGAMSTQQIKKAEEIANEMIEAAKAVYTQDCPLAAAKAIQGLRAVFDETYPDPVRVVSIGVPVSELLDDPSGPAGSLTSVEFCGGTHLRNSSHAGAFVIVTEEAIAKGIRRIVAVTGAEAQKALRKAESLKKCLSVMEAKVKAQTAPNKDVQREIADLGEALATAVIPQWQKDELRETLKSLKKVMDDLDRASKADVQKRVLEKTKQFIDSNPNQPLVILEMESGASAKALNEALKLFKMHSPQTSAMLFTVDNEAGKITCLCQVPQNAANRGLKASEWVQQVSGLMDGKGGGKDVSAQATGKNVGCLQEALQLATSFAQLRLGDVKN
Experiment: GST pull down assay
Details: 20 µM Tanshinone I, ImageJ, average of three repeats
Procedure: To further investigate whether Tanshinone I-induced conformational changes in AlaRS CMT mutants affect their interaction with Nrp1, Co-IP experiments were performed in cells treated with Tanshinone I. By comparing Co-IP results obtained before and after treatment, we assessed the influence of the drug on the binding strength and mode between the AlaRS CMT mutants and Nrp1. […] To confirm the direct effect of Tanshinone I on the interaction between AlaRS CMT mutants and Nrp1, pull-down experiments were performed. […] Given that the interaction between AlaRS mutants and Nrp1 is associated with disease progression in CMT, the ability of Tanshinone I to disrupt this binding highlights its potential to intervene in the pathogenic mechanisms of these diseases.
Figure 7 The impact of Tanshinone I on the interaction between AlaRS mutants and Nrp1. (A) Co-IP assays were conducted to assess the binding between HA-AlaRS mutants and Nrp1, both with and without treatment with 20 µM Tanshinone I for 24 h. […] (C) Pull down assay was performed to detect the binding between AlaRS mutants and GST-Nrp1 b1 with or without 20 µM Tanshinone I. (D) Relative quantification statistics of the AlaRS mutants pulled down from the GST pull down experiments after Tanshinone I treatment were performed using ImageJ. (E) The cell viability of 293T and NSC34 cells treated with different concentrations of Tanshinone I was assessed using the CCK-8 assay over a 24 h period. TEXT PRINTED IN THE PICTURE: (B) Tanshinone I: Mean density band (N71Y): 0.60; Mean density band (G102R): 0.53; Mean density band (R326W): 0.50; Mean density band (R329H): 0.50; Mean density band (E337K): 0.62 | (D) Tanshinone I: Mean density band (N71Y): 0.82; Mean density band (G102R): 0.76; Mean density band (R326W): 0.84; Mean density band (R329H): 0.84; Mean density band (E337K): 0.90
To detect the direct interactions between the mutant proteins and Nrp1 in vitro, we performed a Glutathione S-transferase (GST) pull-down assay. AlaRS mutants fused with 6 × His were purified with Ni-NTA beads, followed by chromatography on a HiTrap Q HP column. Nrp1 b1 fragments fused with GST were purified with Glutathione Beads (#SA008100, Smart-Lifesciences, Changzhou, China). For GST pull-down assays, 1000 μg of each GST-fused Nrp1 b1 fragment was mixed with 200 μg of 6 × His-tagged fusion protein in binding buffer (50 mM Tris-HCl pH 7.5, 20 mM NaCl, 5% glycerol, 5 mM DTT with 0.1% BSA) at 4 °C overnight. The mixture was next incubated with 30 μL glutathione beads at 4 °C with constant rotation for 2–4 h. Subsequently, the bead/protein complex was washed three times, and eluted with 30 μL 2 × SDS sample buffer. The samples were then subjected to SDS-PAGE analysis. The experiment was repeated three times.

Cc1coc2c1C(=O)C(=O)c1c-2ccc2c(C)cccc12 [Tanshinone I]
Mean density band (G102R), relative quantification of AlaRS mutant pulled down: 0.76
